The values that follow come from patent US6677324B1, “Combination preparation of estrogen and anti-estrogen” (Schering Aktiengesellschaft, priority 1998, dated 2004).

For one assay, the system named is uterus and bone. As to the kind of experiment: Selective bone action test: uterus weight, uterine epithelium depth and trabecular bone density of proximal tibia in ovarectomized rats. Conditions: combination with 17β-oestradiol, ovarectomized rats 3 months old, treated 28 days, FIGS. 1-3. It counts as in vivo, rat. Here is the method: In the FIG. 1 means: control (only solvent), 2: 0.3 μg of oestradiol, 3: 75 μg of test substance, 4: 75 μg of test substance+0.03 μg of oestradiol, 5: 75 μg of test substance+0.1 μg of oestradiol, 6: 75 μg of test substance+0.3 μg of oestradiol, 7: 75 μg of test substance+1.0 μg of oestradiol, 8: 75 μg of test substance+3.0 μg of oestradiol.
In the FIG. 1 means: control (only solvent), 2: 0.3 μg of oestradibl, 3: 75 μg of test substance, 4: 75 μg of test substance+0.03 μg of oestradiol, 5: 75 μg of test substance+0.1 μg of oestradiol, 6: 75 μg of test substance+0.3 μg of oestradiol, 7: 75 μg of test substance+1.0 μg of oestradiol, 8: 75 μg of test substance+3.0 μg of oestradiol.
The doses of the oestrogen and antioestrogen to be used for the selective bone action test must be established to begin with in preliminary investigations.
The dose of the antioestrogen to be used is determined by an antiuterus growth test in the oestradiol-substituted, ovarectomized rat. […]
After 28 days, the animals are killed and the uterus weight, as well as the trabecular bone density in the proximal tibia, is measured. The uterus weight is determined by weighing the uterus moist weight immediately after organ removal. The trabecular bone density is determined ex vivo by bone density measurements in the secondary spongiosa of the proximal tibia using a QCT (Stratec XCT 960A).

In a further assay the test system is central nervous system. To be noted: Biegon et al. 1996; cited from earlier work.

As to `CN(CCCCC[C@@H]1Cc2cc(O)ccc2[C@@H]2[C@@H]1[C@@H]1CC[C@H](O)[C@@]1(C)C[C@@H]2F)CCCSCCCC(F)(F)C(F)(F)F` [Example 1, 11β-fluoro-7α-{5-[N-methyl-N-3-(4,4,5,5,5-pentafluoropentylthio)propylamino]pentyl}-oestra-1,3,5(10)-triene-3,17β-diol], the “selective action of the combination on bone versus uterus” value in the assay on uterus and bone is listed as “selectively active”.

As to `CC/C(=C(\c1ccccc1)c1ccc(OCCN(C)C)cc1)c1ccccc1` [tamoxifen], the “action in the central nervous system” value with central nervous system is given as “acts there as an oestroaenic antagonist”.
